{"source": "patent US11491184B2", "about": "“Liquids rich in noble gas and methods of their preparation and use” (THE BOARD OF REGENTS OF THE UNIVERSITY OF TEXAS SYSTEM, priority 2013, dated 2022)", "key": {"[1]": {"details": "cited from earlier work; for concentration dissolved in water: standard temperature and pressure"}, "[2]": {"assay": "Stated solubility / dissolved concentration of gases and hp-beta-CD", "format": "physicochemical", "details": "room temperature and 1 atm"}, "[3]": {"test_system": "apolipoprotein-E (Apo E) knockout (KO) mice", "assay": "Echocardiographic measurements after oral Xe-rich solution, Apo E KO mice on high fat diet", "format": "in vivo", "source_text": "(§1) All animal studies were approved by the Animal Welfare Committee at The University of Texas Health Science Center at Houston. C57BL/6J wild type (WT) and apolipoprotein-E (Apo E) knockout (KO) mice were purchased from Jackson Laboratory (Bar Harbor, Me., USA), see, e.g., Meir et al., 2004, incorporated herein by reference. The control WT mice used were C57BL/6J, which share the same genetic background with the Apo E KO mice. Six- to eight-month-old male WT and KO mice were fed control or high fat diet (Harlan Laboratories, USA) and administered control or Xe-rich solution (200 μl, once a day) and water drink for 6 weeks, since the Apo E KO mice type fed a high fat diet develop atherosclerotic lesions.\n(§2) Baseline measurements by echocardiography were obtained before feeding with the high fat diet. Cardiac morphology and function were assessed by serial M-mode echocardiography using a Vevo 770 Imaging System (VisualSonics Inc., Ontario, Canada) equipped with a 30 MHz microprobe. M-mode ventricular measurements were taken at 6-weeks after the feeding. Electrocardiographic (ECG) data was obtained. Echo data (HR, heart rate; LVID, left ventricular internal dimension; IVS, intra-ventricular septum; LVPW, left ventricular posterior wall; FS, fractional shortening; SV, stroke volume; EF, ejection fraction; CO, cardiac output; LV Vol, LV volume; LV mass corrected) were analyzed with the analysis software (VisualSonics Inc., Ontario, Canada).\n(§3) Animals were divided into 5 groups (see experiment setting). Echocardiography was used to assess cardiac dimensions and function at baseline, and at 6-weeks following the Xe exposure (FIGS. 1 and 2; Table 1). Cardiac size of WT and KO hearts were determined with LV mass (corrected) and normalized to body weight (mg/g) following 6-weeks of the Xe exposure (FIG. 3A)."}, "[4]": {"test_system": "Brain-derived Neurotrophic Factor (BDNF)", "assay": "BDNF Sandwich ELISA of heart and brain after Xe-rich solution", "format": "in vivo, mice", "details": "KO6w Xe vs vehicle, 6 weeks", "source_text": "All animal studies were approved by the Animal Welfare Committee at The University of Texas Health Science Center at Houston. C57BL/6J wild type (WT) and apolipoprotein-E (Apo E) knockout (KO) mice were purchased from Jackson Laboratory (Bar Harbor, Me., USA), see, e.g., Meir et al., 2004, incorporated herein by reference. The control WT mice used were C57BL/6J, which share the same genetic background with the Apo E KO mice. […]\nFresh frozen heart and brain tissues were slightly thawed on crushed ice to allow dissection of the hearts and brains. […] The protein concentration was determined using a Bradford Protein Assay (Bio-Rad, Calif., USA).\nExcept for the heart and brain extracts, the samples (such as plasma) were thawed and clarified at 12,000 rpm for 10 min at 4° C. prior to ELISA assays for β-amyloid per the manufacturer's instructions. BDNF and β-amyloid peptide (Aβ1-40) content were determined by using BDNF Sandwich ELISA Kit (Millipore Corporation, MA, USA) and a Mouse/Rat Amyloid β (1-40) High Specific ELISA Assay Kit (IBLAmerican, Minneapolis, Minn., USA). […] was measured by using SpectroMax Microplate reader (Bio-Tek Instruments) at 450 nm. All samples were analyzed in duplicate."}, "[5]": {"test_system": "apolipoprotein-E (Apo E) knockout (KO) mice", "assay": "Electrocardiographic (ECG) data after Xe-rich solution", "format": "in vivo", "details": "KO6w treated with Xe, 6-weeks time point", "source_text": "as §1\nas §2, with “M-mode ventricular measurements were taken at 6-weeks after the feeding. Electrocardiographic (ECG) data was obtained.” left out"}, "[6]": {"test_system": "apolipoprotein-E (Apo E) knockout (KO) mice", "assay": "Heart weight normalized to body weight after Xe-rich solution", "format": "in vivo", "details": "KO6w Xe vs KO6w vehicle, 6 weeks", "source_text": "as §1, §3"}, "[7]": {"assay": "Measurement of Xe dissolved / encapsulated in water and hp-beta-CD", "format": "physicochemical", "details": "3 atm", "procedure": "Xenon was enclosed into a soluble caged molecules (e.g., cyclodextrin). To remove possible residue molecules from cage, the caged molecular was baked at 40-80° C. under vacuum for overnight. To enclose xenon into caged molecules, xenon was incubated with caged molecular in a sealed vial under 2-10 atm pressure at […]. for overnight to 3 days.\nPure water was degassed under 20-80 mbar vacuum at room temperature for overnight. Xenon (99.999% Medical grade, Matheson Tri-Gas®, Houston, Tex., USA) was re-dissolved into degassed water by pressure water with 2-10 atm xenon gas at 4° C. for overnight to 3 days.\nXe-rich-water is composed of Xe directly dissolved in water and caging with hydroxypropyl-beta-cyclodextrin (hp-beta-CD) in water. […]\nTo measure the amount of Xe dissolved in a Xe-rich-water. […] The solution was then warmed up to 80° C. in a vial with a silicone-rubber seal (Thermo Scientific SepraSeal® (Thermo Scientific, Hudson, N.H., USA) sealed top for 2 hours. After cooling down to room temperature, a syringe with a 17 gauge needle was inserted into a vial through the silicone-rubber seal. The released Xe gas present in the top spacer formed pressure, which pushed Xe gas into the syringe. The amount of Xe released into syringe was then measured."}, "[8]": {"details": "chronic oral administration; cited from earlier work"}, "[9]": {"details": "KO6w Xe vs KO6w vehicle, 6 week time point"}}}
{"compound": "[Ar]", "note": "[Ar, Argon]", "values": [{"measurement": "concentration dissolved in water", "setting": "[1]", "result": "about 55 μg/ml"}]}
{"compound": "[Xe]", "note": "[Xe, Xenon]", "values": [{"measurement": "Xe in an oil, such as olive oil", "setting": "[2]", "result": "about 12 mg Xe/ml"}, {"measurement": "increase in LV mass (corrected)", "setting": "[3]; KO6w Xe vs KO6w vehicle and KO6w control, 6 weeks, Xe-rich solution 200 μl once a day", "result": "blocked"}, {"measurement": "wall thickness increase (IVS, LVPW)", "setting": "[3]; KO6w Xe vs KO6w vehicle and KO6w/control, 6 weeks", "result": "significantly blocked"}, {"measurement": "decrease in LV ejection fraction (EF)", "setting": "[3]; [9]", "result": "significantly blocked"}, {"measurement": "decrease in LV fractional shortening (FS)", "setting": "[3]; [9]", "result": "significantly blocked"}, {"measurement": "decrease in cardiac output (CO)", "setting": "[3]; [9]", "result": "significantly blocked"}, {"measurement": "heart rate (HR) increase, in words", "setting": "[3]; KO6w given Xe, 6 weeks", "result": "blocked"}, {"measurement": "relative BDNF levels in heart", "setting": "[4]", "result": "further increased"}, {"measurement": "ECG changes in T wave, ST segment and QRS complex (myocardial ischemia)", "setting": "[5]", "result": "did not occur"}, {"measurement": "heart weight normalized to body weight", "setting": "[6]", "result": "Decreased"}, {"measurement": "xenon encapsulated in a hp-beta-CD cage", "setting": "[7]; −80° C., 0.5 mg/ml of hp-beta-CD", "result": 5, "unit": "mL"}, {"measurement": "xenon gas dissolved into 5 ml water", "setting": "[7]; degassed water, pure xenon gas, 4° C., 4 hours to overnight", "result": 6.5, "unit": "mL"}, {"measurement": "concentration dissolved in water", "setting": "[1]", "result": "about 600 μg/ml"}]}
{"compound": "CC(O)COC[C@H]1O[C@@H]2O[C@H]3[C@H](O)[C@@H](O)[C@@H](O[C@H]4[C@H](O)[C@@H](O)[C@@H](O[C@H]5[C@H](O)[C@@H](O)[C@@H](O[C@H]6[C@H](O)[C@@H](O)[C@@H](O[C@H]7[C@H](O)[C@@H](O)[C@@H](O[C@H]8[C@H](O)[C@@H](O)[C@@H](O[C@H]1[C@H](O)[C@H]2O)O[C@@H]8COCC(C)O)O[C@@H]7COCC(C)O)O[C@@H]6COCC(C)O)O[C@@H]5COCC(C)O)O[C@@H]4COCC(C)O)O[C@@H]3COCC(C)O", "note": "(stereo partly drawn) [hp-beta-CD, Hydroxypropyl-beta-cyclodextrin]", "values": [{"measurement": "Solubility", "setting": "[1]", "result": 330, "unit": "mg/mL"}]}
{"compound": "cyclodextrin", "values": [{"measurement": "acceptably safe dose", "setting": "[8]", "result": "about 1,000 mg/kg/day"}]}
